The text below walks through data of patent publication US11318119B2 (Gilead Sciences, Inc., priority 2019, dated 2022).

One series in a line: in vitro. As to conditions: human, microsomes. The procedure: Liver Microsomal Stability Protocol
Test compounds and one control compound (verapamil) were tested in 3 different species in duplicate sets.
Reaction composition (in each incubation well) contains:
After plates were vortexed, they were centrifuged for 30 minutes to remove proteins. About 100 μL supernatant was removed to a new plate and diluted with 150 μL water. About 20 μL of the mixture was injected into LC/MS/MS system to monitor the compound's response. In vitro measured t1/2 was used to calculate Clint values.

Series [1] deals with single replication cycle recombinant virus containing the protease and reverse transcriptase coding regions of HIV-1 from a patient blood sample. Type of series: cell-based. As to conditions: for mean fold change in susceptibility: mean over the resistant panel of Table 2. The text has this:
Resistance testing was done by Monogram Biosciences using their proprietary PhenoSense HIV assay. This assay evaluates drug susceptibility by using a single replication cycle recombinant virus containing the protease (amino acids 1-99 plus p7/p1/p6 gag cleavage sites) and reverse transcriptase (amino acids 1-304) coding regions of HIV-1 from a patient blood sample.

The subject of series [2] is HIV-1 (IIIB) in MT-4 cells. Put plainly: MT-4 HIV Assay (inhibition of HIV-1 replication, Cell Titer Glo readout). Format: cell-based. Particulars: Human immunodeficiency virus 1, MT4, 120 h, 5 days incubation. The procedure:
(§1) Compounds were tested in a high-throughput 384-well assay format for their ability to inhibit the replication of HIV-1 (IIIB) in MT-4 cells. Compounds were serially diluted (1:3) in DMSO on 384-well polypropylene plates and further diluted 200-fold into complete RPMI media (10% FBS, 1% P/S) using the Biotek Micro Flow and Agilent ECHO acoustic dispenser. Each plate contained up to 8 test compounds, with negative (No Drug Control) and 5 uM AZT positive controls. MT-4 cells were pre-infected with 10 uL of either RPMI (mock-infected) or a fresh 1:250 dilution of an HIV-1 (IIIB) concentrated virus stock. Infected and uninfected MT-4 cells were further diluted in complete RPMI media and added to each plate using a Micro Flow dispenser. After 5 days incubation in a humidified and temperature controlled incubator (37° C.), Cell Titer Glo (Promega) was added to the assay plates to quantify the amount of luciferase.

For series [3], the system named is HIV-1 (IIIB) in MT-4 cells. Put plainly: MT-4 HIV High Resolution Antiviral Assay. Type of series: cell-based. Particulars: EC95=(19)^1/hill coefficient x EC50. The procedure: as §1
In the next series the target is T1, recombinant HIV protease (Human immunodeficiency virus type 1 group M subtype B, UniProt P04585).
T1 construct: recombinant HIV protease
Description: HIV Protease Enzyme Inhibition (PI) Activity, fluorogenic enzymatic assay. Format: biochemical. The procedure: HIV Protease Enzyme Inhibition (PI) Activity
Inhibitor potency against HIV protease can be measured using an enzymatic assay with a fluorogenic readout. To a reaction buffer containing 100 mM ammonium acetate at pH 5.3, 100 mM NaCl, 1 mM EDTA, 1 mM DTT, 0.25 mg/mL BSA and 1% DMSO are added 10 nM of recombinant HIV protease (concentration based on protein monomer) and test compound at one of various concentrations. After a 10-minute pre-incubation, the enzymatic reaction is initiated by the addition of the fluorogenic substrate (2-aminobenzoyl)Thr-Ile-Nle-(p-nitro)Phe-Gln-Arg (Bachem; Product No. H-2992) (SEQ ID NO: 1) to a final concentration of 40 μM. The total volume of the assay solution is 100 μL. The reaction is measured over 10 minutes on a Tecan Infinite M1000 plate reader using an excitation wavelength of 320 nm and a detection wavelength of 420 nm. The slopes of the progress curves are the measure of reaction rates. Reaction rates are plotted as a function of inhibitor concentration, and the data are fit with a four-parameter logistic fit using Graphpad PRISM software to yield IC50 values.

[4] abbreviates: Resistance mutations D30N L33F N88D L90M.
Where [5] appears, read: Resistance mutations L10F L33F M46I I50V V82A N88D L89V.
[6] abbreviates: Resistance mutations L10F M46I I47V I50V I54V G73S I84V L90M.
Setting [7] is: Resistance mutations L10F M46L I54V V82A 184V.
Setting [8] is: Resistance mutations L10F V32I M46I I47V I50V I54L I84V.
[9] abbreviates: Resistance mutations L10F/L D30N I54V N88D L90M.
Setting [10] is: Resistance mutations L10F/L D30N L33F I54L N88D L90M.
The mark [11] stands for this setting: Resistance mutations L10I I50 V82A L90M.
The mark [12] stands for this setting: Resistance mutations L10I L33F G48V I50L I54V/I V82A.
Setting [13] is: Resistance mutations L10I L33F M46I I54V V82A I84V.
[14] abbreviates: Resistance mutations L10I L33F M46L G48V I54M V82A I84V L90M.
Setting [15] is: Resistance mutations L10I L33F/L G48V G73S V82A.
[16] abbreviates: Resistance mutations L10I M46I G48V I50V V82A L90M.
Setting [17] is: Resistance mutations L10I M46I I50V.
[18] abbreviates: Resistance mutations L10I M46L I54V V82A.
The mark [19] stands for this setting: Resistance mutations L10I M46L I54V V82F L90M.
The mark [20] stands for this setting: Resistance mutations L10I V32I L33F M46L I54L I84V L89V.
[21] abbreviates: Resistance mutations L10I V32I M46I I47V G48V I54M V82T L90M.
Where [22] appears, read: Resistance mutations L10I V32I M46I I47V I50V I54L L90M.
Where [23] appears, read: Resistance mutations L10V L33F I50L L90M.
The mark [24] stands for this setting: Resistance mutations L10V L33F M46I I54V V82A I84V L90M/L.
The mark [25] stands for this setting: Resistance mutations L10V/L M46I I50L V82A.
[26] abbreviates: Resistance mutations L33F M46I I50V L76V.
[27] abbreviates: Resistance mutations M46I L76V I84V.
Where [28] appears, read: 10 nM recombinant HIV protease, pH 5.3, 40 μM fluorogenic substrate, read-out: HIV PI IC50.

Structures are written as SMILES. Where two headings read alike, the source gives them in different places. Bounds are passed on as bounds.

`COC(=O)N[C@H](C(=O)N[C@@H](Cc1ccccc1)[C@@H](O)CN(Cc1ccc(-c2ccccn2)cc1)NC(=O)[C@@H](NC(=O)OC)C(C)(C)C)C(C)(C)C` [Atazanavir, methyl N-[(2S)-1-[2-[(2S,3S)-2-hydroxy-3-[[(2S)-2-(methoxycarbonylamino)-3,3-dimethylbutanoyl]amino]-4-phenylbutyl]-2-[(4-pyridin-2-ylphenyl)methyl]hydrazinyl]-3,3-dimethyl-1-oxobutan-2-yl]carbamate, reference compound] showed a half-life at 1 μM in the series “in vitro” of 0.433 to 1.78 h. Besides, the “Fold Change in EC50” value was 4.68 in series [1] (setting [4]); 1.25 in series [1] (setting [5]); 19 in series [1] (setting [6]); 73 in series [1] (setting [7]); 5.44 in series [1] (setting [8]); 29 in series [1] (setting [9]). In addition, the “Fold Change in EC50” value was 15 in series [1] (setting [10]); 33 in series [1] (setting [11]); 70 in series [1] (setting [12]); 44 in series [1] (setting [13]); 70 in series [1] (setting [14]); above 91 in series [1] (setting [15]). Moreover, the “Fold Change in EC50” value in series [1] (setting [16]) is listed as 39; in series [1] (setting [17]), 2.39; in series [1] (setting [18]), 9.73; in series [1] (setting [19]), 24; in series [1] (setting [20]) it was 89; in series [1] (setting [21]), 9.49. For the same compound, the “Fold Change in EC50” value was 25 in series [1] (setting [22]); above 91 in series [1] (setting [23]); 9.69 in series [1] (setting [24]); 69 in series [1] (setting [25]); 1.84 in series [1] (setting [26]); 1.36 in series [1] (setting [27]). Also, the “mean fold change in susceptibility” value in series [1] was determined as 17.7.

For the compound `CC(C)(C[C@]1(c2ccc(-c3ccc(S(C)(=O)=O)cc3)cc2)NC(=N)N([C@H](COC(=O)NC2(C(F)F)CC2)c2ccc(Cl)c(-c3ncnn3C(F)F)c2)C1=O)C(F)(F)F` [Compound 1, (S)-2-(4-chloro-3-(1-(difluoromethyl)-1H-1,2,4-triazol-5-yl)phenyl)-2-((R)-2-imino-4-(4′-(methylsulfonyl)-[1,1′-biphenyl]-4-yl)-5-oxo-4-(3,3,3-trifluoro-2,2-dimethylpropyl)imidazolidin-1-yl)ethyl (1-(difluoromethyl)cyclopropyl)carbamate], the EC50 in series [2] came out at 13.2 nM. This compound gave an EC95 in series [3] of 24.9 nM. For the same compound, on recombinant HIV protease (setting [28]), the IC50 amounted to 1.8 nM.

Consider `CC(C)(C[C@]1(c2ccc(-c3cccc(S(C)(=O)=O)c3)cc2)NC(=N)N([C@H](COC(=O)NC2(C(F)F)CC2)c2ccc(Cl)c(-c3ncnn3C(F)F)c2)C1=O)C(F)(F)F` [Compound 2], for which the EC50 in series [2] is 27.5 nM. For the same compound, the IC50 at recombinant HIV protease (setting [28]) was 2.9 nM.

The compound `CC(C)(C[C@]1(c2ccc(-c3ccc(S(C)(=O)=O)c(F)c3)cc2)NC(=N)N([C@H](COC(=O)NC2(C(F)F)CC2)c2ccc(Cl)c(-c3ncnn3C(F)F)c2)C1=O)C(F)(F)F` [Compound 3] returned an EC50 in series [2] of 11.1 nM. Also, on recombinant HIV protease (setting [28]), the IC50 was 2.9 nM.

Compound `CC(C)(C[C@]1(c2ccc(-c3ccc(S(C)(=O)=O)cc3F)cc2)NC(=N)N([C@H](COC(=O)NC2(C(F)F)CC2)c2ccc(Cl)c(-c3ncnn3C(F)F)c2)C1=O)C(F)(F)F` [Compound 4] had an EC50 in series [2] of 11.3 nM. In addition, the concentration for half-maximal inhibition (IC50) at recombinant HIV protease (setting [28]) turned out to be 2.4 nM.

Take `CC(C)(C[C@]1(c2ccc(-c3ccc(F)cc3)cc2)NC(=N)N([C@H](COC(=O)NC2(C(F)F)CC2)c2ccc(Cl)c(-c3ncnn3C(F)F)c2)C1=O)C(F)(F)F` [Compound 5]: the EC50 in series [2] is 63.1 nM. Moreover, the IC50 at recombinant HIV protease (setting [28]) worked out at 4.5 nM.

For the compound `CC(C)(C[C@]1(c2ccc(-c3cccc(F)c3)cc2)NC(=N)N([C@H](COC(=O)NC2(C(F)F)CC2)c2ccc(Cl)c(-c3ncnn3C(F)F)c2)C1=O)C(F)(F)F` [Compound 6], the EC50 in series [2] turned out to be 50 nM. Further, at recombinant HIV protease (setting [28]), the IC50 was found to be 2.3 nM.

Regarding `CC(C)(C[C@]1(c2ccc(-c3cnn(C(F)F)c3)cc2)NC(=N)N([C@H](COC(=O)NC2(C(F)F)CC2)c2ccc(Cl)c(-c3ncnn3C(F)F)c2)C1=O)C(F)(F)F` [Compound 7], in series [2], the concentration for a half-maximal effect (EC50) is 7.8 nM. In addition, the EC95 in series [3] is recorded as 17.8 nM. Besides, the IC50 on recombinant HIV protease (setting [28]) is 1.8 nM. Besides, the “Fold Change in EC50” value came out at 3.62 in series [1] (setting [4]); 0.58 in series [1] (setting [5]); 3.51 in series [1] (setting [6]); 0.91 in series [1] (setting [7]); 1.08 in series [1] (setting [8]); 5.32 in series [1] (setting [9]). Further, the “Fold Change in EC50” value in series [1] (setting [10]) is listed as 2.57; in series [1] (setting [11]) it was 1.7; in series [1] (setting [12]), 0.72; in series [1] (setting [13]), 2.49; in series [1] (setting [14]), 2.9; in series [1] (setting [15]), 2.34. The “Fold Change in EC50” value in series [1] (setting [16]) was 9.22; in series [1] (setting [17]) it was 2.2; in series [1] (setting [18]) it was 5.84; in series [1] (setting [19]) it was 4.33; in series [1] (setting [20]) it was 0.82; in series [1] (setting [21]), 2.84. The “Fold Change in EC50” value in series [1] (setting [22]) is listed as 3.92; in series [1] (setting [23]), 3.09; in series [1] (setting [24]), 2.6; in series [1] (setting [25]) it was 4.77; in series [1] (setting [26]), 1.39; in series [1] (setting [27]), 2.04. Also, the “mean fold change in susceptibility” value in series [1] came to 2.4.

For the compound `CC(C)(C[C@]1(c2ccc(-c3ccn(C(F)F)n3)cc2)NC(=N)N([C@H](COC(=O)NC2(C(F)F)CC2)c2ccc(Cl)c(-c3ncnn3C(F)F)c2)C1=O)C(F)(F)F` [Compound 8, (S)-2-(4-chloro-3-(1-(difluoromethyl)-1H-1,2,4-triazol-5-yl)phenyl)-2-((R)-4-(4-(1-(difluoromethyl)-1H-pyrazol-3-yl)phenyl)-2-imino-5-oxo-4-(3,3,3-trifluoro-2,2-dimethylpropyl)imidazolidin-1-yl)ethyl (1-(difluoromethyl)cyclopropyl)carbamate], the concentration for a half-maximal effect (EC50) in series [2] came to 8.4 nM. Besides, the half-inhibitory concentration (IC50) at recombinant HIV protease (setting [28]) stood at 2 nM.

In series [2], `CC(C)(C[C@]1(c2ccc(-c3cn(C(F)F)cn3)cc2)NC(=N)N([C@H](COC(=O)NC2(C(F)F)CC2)c2ccc(Cl)c(-c3ncnn3C(F)F)c2)C1=O)C(F)(F)F` [Compound 9, (S)-2-(4-chloro-3-(1-(difluoromethyl)-1H-1,2,4-triazol-5-yl)phenyl)-2-((R)-4-(4-(1-(difluoromethyl)-1H-imidazol-4-yl)phenyl)-2-imino-5-oxo-4-(3,3,3-trifluoro-2,2-dimethylpropyl)imidazolidin-1-yl)ethyl (1-(difluoromethyl)cyclopropyl)carbamate] had an EC50 of 26.3 nM. Also, at recombinant HIV protease, the IC50 is 5.7 nM.
